This note sets out measurements from US20230149507A1, “TREATMENT OF ALT CANCERS” (INSTITUTO DE MEDICINA MOLECULAR JOÃO LOBO ANTUNES, priority 2019, published 2023).

What all share (type): cell-based, human
For experiment [1], the system named is U-2 OS cells. Description: Metaphase-TIFs in cells overexpressing FANCM variants. To be noted: stable overexpression. From the text:
(§1) (a) Schematic of FANCM domain interactions, mutations or deletions. For clarity, domains have been color coded by functional role (bottom panel). (b) Quantitation of metaphase-TIFs in U-2 OS cells stably overexpressing wild-type (FANCM+) or FANCM mutants. Scatterplot bars represent the mean±SEM. Out of 3 experiments, n≥110 metaphases scored for each mutant, *p<0.05, **p<0.005, Mann-Whitney test. (c) Quantitation of fragile telomeres in U-2 OS cells stably overexpressing wild-type (FANCM+) or FANCM mutants. Scatterplot bars represent the mean±SEM. Out of 3 experiments, n>100 metaphases scored for each mutant, *p<0.05, **p<0.005, Mann-Whitney test. (d) Representative dot blots and quantitation of C-circle assays in U-2 OS cells stably overexpressing wild-type (FANCM+) or FANCM domain mutants. C-circles were normalized to the mean of vector control. Error bars represent mean±SEM from n=3 experiments, *p<0.05, **p<0.005, Student's t-test. (e) Single molecule analysis of telomeric extension events (top panel) and length of extension events (bottom panel) in U-2 OS cells stably overexpressing wild-type (FANCM+) or FANCM domain mutants. Error bars represent mean±SEM of n≥350 fibers out of 3 experiments, *p<0.05, **p<0.005, Student's t-test.
(§2) FIG. 23. Defects in ALT phenotype suppression are exacerbated by overexpression of a double-mutant (DM) FANCM, in which both the MM2 domain (FF>AA) and the translocase domain (K117R) of FANCM are mutated. (a) Representative dot blots and quantitation of C-circle assays in U-2 OS cells stably overexpressing wild-type (WT) or FANCM domain mutants (K117R, FF>AA; DM). C-circles were normalized to the mean of empty vector control (EV). Error bars represent mean±SEM from n=3 experiments, *p<0.05, **p<0.005, Student's t-test. (b) Quantitation of APB frequency in U-2 OS cells overexpressing wild-type (WT) or FANCM mutants. Scatterplot bars represent the mean±SEM. Out of three experiments, n=150 cells were scored for each mutant, **p<0.005, Mann-Whitney test. (c) Quantitation of metaphase-TIFs in U-2 OS cells stably overexpressing wild-type (WT) or FANCM mutants. Scatterplot bars represent the mean±SEM. Out of three experiments, n=120 metaphases scored for each mutant, *p<0.05, **p<0.005, Mann-Whitney test. All statistical comparisons are relative to EV control.
(§3) Empty vector and wild-type FANCM (pCMV6-Myc-DDK) constructs were obtained from Origene Technologies. Wild type FANCM (SEQ ID NO: 2) and FANCM mutants (SEQ ID NOs: 19 to 28) were cloned into the pLenti-C-Myc-DDK-IRES-Neo backbone (Origene Technologies) by restriction enzyme subcloning of gene blocks synthesized by Integrated DNA Technologies (IDT). Lentivirus was produced by the Vector and Genome Engineering Facility (Children's Medical Research Institute). For stable overexpression, cells were transduced with lentivirus, allowed to recover for 24 h, and subject to G418 selection. Cells were maintained in G418 to ensure sustained overexpression.
(§4) Indirect IF and telomere FISH were performed on both interphase nuclei and metaphase spreads. For interphase IF experiments, cells were grown on coverslips or LabTek chamber slides (Thermo Scientific). Slides were prepared as described in Sobinoff et al., 2017. Cells on coverslips were washed twice with PBS, permeabilized with KCM buffer (120 mM KCl, 20 mM NaCl, 10 mM Tris pH 7.5, 0.1% Triton), washed again with PBST and PBS, then fixed with ice-cold 4% formaldehyde PBS solution at room temperature for 10 min. […]

Experiment [2] relates to U-2 OS cells. In words: C-circle assay in cells overexpressing FANCM variants. To be noted: stable overexpression, compared to vector control.
Text: as §1, §2, §3
C-circles were amplified with Phi29 polymerase using dATP, dTTP and dGTP overnight. Products were dot blotted onto Biodyne B membranes (Pall) and pre-hybridised in PerfectHyb Plus (Sigma) for at least 30 min. Radiolabeled telomeric C-probe was then added and blots were hybridized overnight at 37° C. (Henson et al., 2009). Blots were washed with 0.5×SSC, 0.1% SDS three times for 5 min each then exposed to phosphor screen. Imaging was performed on the Typhoon FLA 7000 system (GE Healthcare) with a PMT of 750 V.

In experiment [3] the test system is U-2 OS cells. In words: APB frequency and APB telomere intensity in cells overexpressing FANCM variants. To be noted: overexpression.
Text: (a) Western immunoblotting of stable wild-type FANCM (FANCM+) or FANCM mutant overexpression in U-2 OS cells. […] (b) TRF analysis of U-2 OS cells overexpressing wild-type (FANCM+) or FANCM mutants. Gels were hybridized under native and denatured conditions with radiolabelled telomeric probes to detect the C-strand and G-strand. (c) Tukey boxplots of APB frequency (top panel) and mean APB telomere intensity (bottom panel) in U-2 OS cells overexpressing wild-type (FANCM+) or FANCM mutants. Out of 3 experiments, n=150 cells scored per variant, *p<0.05, **p<0.005, Mann-Whitney test.
as §2, §3
Indirect IF and telomere FISH were performed on both interphase nuclei and metaphase spreads. For interphase IF experiments, cells were grown on coverslips or LabTek chamber slides (Thermo Scientific). Slides were prepared as described in Sobinoff et al., 2017. Cells on coverslips were washed twice with PBS, permeabilized with KCM buffer (120 mM KCl, 20 mM NaCl, 10 mM Tris pH 7.5, 0.1% Triton), washed again with PBST and PBS, then fixed with ice-cold 4% formaldehyde PBS solution at room temperature for 10 min. Coverslips were blocked with antibody-dilution buffer (20 mM Tris-HCl, pH 7.5, 2% (w/v) BSA, 0.2% (v/v) fish gelatin, 150 mM NaCl, 0.1% (v/v) Triton X-100 and 0.1% (w/v) sodium azide) and 0.1 mg/ml RNaseA for 30 min at 37° C. Cells were incubated with primary antibodies (Supplementary Table 1) for 1 h at 37° C. or 2 h at room temperature, then incubated with 1:1,000 dilution of appropriate Alexa Fluor conjugated secondary antibodies (Thermo Scientific). Coverslips were rinsed with PBS then fixed with 4% (v/v) formaldehyde at room temperature prior to telomere FISH. Coverslips were subjected to a graded ethanol series (75% for 2 min, 85% for 2 min, and 100% for 2 min) and allowed to air-dry. […]

In experiment [4] the test system is U-2 OS cells. Description: Fragile telomeres in cells overexpressing FANCM variants. The settings on record: stable overexpression.
Text: as §1, §3
as §4, with “min. Coverslips were blocked with antibody-dilution buffer (20 mM Tris-HCl, pH 7.5, 2% (w/v) BSA, 0.2% (v/v) fish gelatin, 150 mM NaCl, 0.1% (v/v) Triton X-100 and 0.1% (w/v) sodium azide) and 0.1 mg/ml RNaseA for 30 min at 37° C.” for “min.”

“DM: double mutant FANCM with both the K117R substitution and the FF>AA double substitution (SEQ ID NO:35)”: the “telomere dysfunction (metaphase-TIFs)” value in the experiment with U-2 OS cells [1] is “enhanced telomere dysfunction”. The C-circle levels entry in the experiment with U-2 OS cells [2] is “significantly greater increase in C-circles”. Also, the “number of APBs” value in the experiment on U-2 OS cells [3] is “greater increase in the number of APBs”.

Take “ERCC4: FANCM ERCC4 domain mutant (SEQ ID NO: 27), deletion at amino acid residues 1815-1922”: the C-circle levels entry with U-2 OS cells [2] was “did not cause a change in C-circle levels”.

Consider “HhH: FANCM HhH domain mutant (SEQ ID NO: 28), deletion at amino acid residues 1971-2048”, for which the C-circle levels entry in the experiment on U-2 OS cells [2] is reported as “did not cause a change in C-circle levels”.

“MID: FANCM MID domain mutant (SEQ ID NO: 21) substituted at V749G/H751G”: the “number of fragile telomeres (telomere fragility)” value with U-2 OS cells [4] is on record as “significantly increased”. Moreover, the “telomere dysfunction (metaphase-TIFs)” value in the experiment with U-2 OS cells [1] is given as “significantly increased”.

Take “wild-type FANCM: wild type FANCM (SEQ ID NO: 2) stably overexpressed by lentivirus”: the “number of fragile telomeres (telomere fragility)” value in the experiment with U-2 OS cells [4] is reported as “significant decrease”. Further, in the experiment on U-2 OS cells [1], the “telomere dysfunction (metaphase-TIFs)” value is listed as “significant decrease”. In addition, the C-circle levels entry in the experiment with U-2 OS cells [2] is reported as “significant decrease in C-circle generation”.
